In US20200338045A1, “ISOINDOLINE COMPOSITIONS AND METHODS FOR TREATING NEURODEGENERATIVE DISEASE” (priority 2017, published 2020):
Entries after “also recorded” stand apart in the source; their conditions may differ.

Tests used:
[1] = system: Aβ oligomers bound to neuronal receptors; test: Aβ oligomer binding to / displacement from neuronal receptors; assay type: cell-based
[2] = Phase 1 MAD safety (adverse events, laboratory, ECG); assay type: in vivo, human
Protocol: In Part B, healthy young subjects in each cohort received the same dose once daily for 14 days after overnight fasting. Cohort dosing started at 280 mg, followed by 560 mg and 840 mg in subsequent cohorts. In each cohort, eight subjects received drug and two received placebo. A fourth cohort of healthy elderly subjects (≥65 years old) received a 560 mg dose vs. placebo daily for 14 days (seven active, two placebo).
Subjects were dosed in the morning with 240 mL of water after an 8-hour fast, and remained in a semi-reclined position for 1 hour and fasting for 2 hours post-administration, except for the fed cohort in Part A. Subjects in each MAD cohort were confined to the clinical facility from check-in on Day 0 until the pharmacokinetic sample was collected on Day 16, 48 hours after administration of the last dose on Day 14. Subjects returned to the clinical facility for follow-up visits on Days 24 and 35.
Safety variables, including incidence of adverse events (AEs), vital signs, clinical laboratory findings, 12-lead electrocardiographs (ECGs), physical examination, and affective and cognitive measures (Part B only), were summarized for all subjects who received study drug.

[3] = COG0102 pharmacokinetics: plasma and CSF concentrations, estimated brain receptor occupancy; assay type: in vivo, human; conditions: 90-560 mg
Protocol: This trial (ClinicalTrials.gov NCT02907567) was a randomized, double-blind, placebo-controlled clinical trial in mild to moderate Alzheimer's patients (MMSE 18-26) (See FIG. 1 for clinical trial design). The trial was conducted at six sites in Australia. Patients were randomized into placebo (n=5) or CT1812-treated groups: 90 mg (n=4), 280 mg (n=5) or 560 mg (n=5) and treated once daily for 28 days. Clinical chemistry was done at Sydpath (Sydney, AU). Pharmacokinetics were done at CPR Pharma Services (Adelaide, AU). Cerebrospinal fluid samples were taken at screening and day 21-28 of treatment and aliquoted. […] One set of CSF samples was analyzed for Alzheimer's disease biomarkers; protein measurements (Aβ42, A1340, total tau, tau phosphorylated at threonine 181 (phosphorylated tau), NFL and neurogranin) were performed using commercially available ELISA assays from Fujirebio according to the manufacturer's instructions (INNOTEST β-AMYLOID(1-42), INNOTEST β-AMYLOID(1-40), INNOTEST hTau Ag, INNOTEST PHOSPHO-TAU(181P), Uman Diagnostics NFL assay). Neurogranin was measured with a sandwich ELISA method using antibodies Ng2 and Ng22 developed at the University of Gotteborg (Kvartsberg et al. 2015). Identical aliquots of CSF, and plasma were analyzed for protein expression changes via LC/MSMS at Caprion (see below).

[4] = system: hippocampal/cortical cultures; test: Neurogranin expression study in vitro; assay type: cell-based; conditions: Aβ42 oligomers 500 nM 1 hr, then CT1812 4.8 nM 24 hr; 21 DIV cultures
Protocol: Neurons were fixed in 3.75% formaldehyde and stained with full-length neurogranin (Abcam catalogue # ab23570, used in combination with novel Ng7 to detect full length neurogranin in Alzheimer's disease patient brain IP; Kvartsberg et al. 2015 Blennow lab), MAP2 (Millipore), and 4G8 (Biolegend) antibodies. Imaging was performed on Cellomics VX automated microscope with a 20×, 0.75 NA objective and analyzed using a compartmental analysis algorithm to measure staining in the nucleus versus cytoplasm.

[5] = system: aged transgenic mouse models of AD; test: Aged transgenic mouse models of AD (cognition, synapses, CSF proteins); assay type: in vivo
[6] = MAD, 280 mg, Age ≤64 yrs (n = 8)
[7] = MAD, 560 mg, Age ≤64 yrs (n = 8)
[8] = MAD, 560 mg, Age ≥65 years (n = 7)
[9] = MAD, 840 mg, Age ≤64 yrs (n = 8)

SMILES: CC(C)(C)Oc1cc(CCC(C)(C)N2Cc3ccc(S(C)(=O)=O)cc3C2)ccc1O [CT1812]
- displacement of Aβ oligomers from neuronal/synaptic receptors [1]: displaces amyloid beta (Aβ) oligomers from neuronal receptors; also recorded: displace oligomers from synaptic receptor sites; also recorded: prevents and displaces binding of Aβ oligomers to neurons
- vomiting incidence ([2]; 840 mg dose, two instances): 25%
- serious AE (SAE) ([2]; 840 mg, respiratory picornavirus infection deemed unrelated to study treatment): One serious AE
- tolerability, multiple dose ([2]; 280 to 840 mg QD 14 days (young), 560 mg (elderly)): safe and well tolerated
- ECG parameters or changes ([2]; MAD): No ECG parameters or changes were assessed as clinically significant
- Number of Subjects with at least one Treatment-Emergent AE: All TEAEs [2, 6]: 7
- Number of Subjects with at least one Treatment-Emergent AE: Dizziness [2, 6]: 1
- Number of Subjects with at least one Treatment-Emergent AE: Dyspepsia [2, 6]: 1
- Number of Subjects with at least one Treatment-Emergent AE: Headache [2, 6]: 2
- Number of Subjects with at least one Treatment-Emergent AE: Nausea [2, 6]: 1
- Number of Subjects with at least one Treatment-Emergent AE: Upper respiratory tract infection [2, 6]: 5
- Subjects (%) with at least one Treatment-Emergent AE: All TEAEs [2, 6]: (88%)
- Subjects (%) with at least one Treatment-Emergent AE: Dizziness [2, 6]: (13%)
- Subjects (%) with at least one Treatment-Emergent AE: Dyspepsia [2, 6]: (13%)
- Subjects (%) with at least one Treatment-Emergent AE: Headache [2, 6]: (25%)
- Subjects (%) with at least one Treatment-Emergent AE: Nausea [2, 6]: (13%)
- Subjects (%) with at least one Treatment-Emergent AE: Upper respiratory tract infection [2, 6]: (63%)
- Number of Subjects with at least one Treatment-Emergent AE: All TEAEs [2, 7]: 7
- Number of Subjects with at least one Treatment-Emergent AE: Catheter site phlebitis [2, 7]: 1
- Number of Subjects with at least one Treatment-Emergent AE: Dyspepsia [2, 7]: 1
- Number of Subjects with at least one Treatment-Emergent AE: Headache [2, 7]: 1
- Number of Subjects with at least one Treatment-Emergent AE: Procedural pain [2, 7]: 4
- Number of Subjects with at least one Treatment-Emergent AE: Upper respiratory tract infection [2, 7]: 1
- Subjects (%) with at least one Treatment-Emergent AE: All TEAEs [2, 7]: (88%)
- Subjects (%) with at least one Treatment-Emergent AE: Catheter site phlebitis [2, 7]: (13%)
- Subjects (%) with at least one Treatment-Emergent AE: Dyspepsia [2, 7]: (13%)
- Subjects (%) with at least one Treatment-Emergent AE: Headache [2, 7]: (13%)
- Subjects (%) with at least one Treatment-Emergent AE: Procedural pain [2, 7]: (50%)
- Subjects (%) with at least one Treatment-Emergent AE: Upper respiratory tract infection [2, 7]: (13%)
- Number of Subjects with at least one Treatment-Emergent AE: All TEAEs [2, 8]: 5
- Number of Subjects with at least one Treatment-Emergent AE: Back pain [2, 8]: 1
- Number of Subjects with at least one Treatment-Emergent AE: Dizziness [2, 8]: 1
- Number of Subjects with at least one Treatment-Emergent AE: Headache [2, 8]: 3
- Subjects (%) with at least one Treatment-Emergent AE: All TEAEs [2, 8]: (71%)
- Subjects (%) with at least one Treatment-Emergent AE: Back pain [2, 8]: (14%)
- Subjects (%) with at least one Treatment-Emergent AE: Dizziness [2, 8]: (14%)
- Subjects (%) with at least one Treatment-Emergent AE: Headache [2, 8]: (43%)
- Number of Subjects with at least one Treatment-Emergent AE: All TEAEs [2, 9]: 6
- Number of Subjects with at least one Treatment-Emergent AE: Back pain [2, 9]: 1
- Number of Subjects with at least one Treatment-Emergent AE: Catheter site phlebitis [2, 9]: 1
- Number of Subjects with at least one Treatment-Emergent AE: Dizziness [2, 9]: 1
- Number of Subjects with at least one Treatment-Emergent AE: Dyspepsia [2, 9]: 1
- Number of Subjects with at least one Treatment-Emergent AE: Headache [2, 9]: 4
- Number of Subjects with at least one Treatment-Emergent AE: Nausea [2, 9]: 1
- Number of Subjects with at least one Treatment-Emergent AE: Procedural pain [2, 9]: 2
- Number of Subjects with at least one Treatment-Emergent AE: Upper respiratory tract infection [2, 9]: 2
- Number of Subjects with at least one Treatment-Emergent AE: Vomiting [2, 9]: 2
- Subjects (%) with at least one Treatment-Emergent AE: All TEAEs [2, 9]: (75%)
- Subjects (%) with at least one Treatment-Emergent AE: Back pain [2, 9]: (13%)
- Subjects (%) with at least one Treatment-Emergent AE: Catheter site phlebitis [2, 9]: (13%)
- Subjects (%) with at least one Treatment-Emergent AE: Dizziness [2, 9]: (13%)
- Subjects (%) with at least one Treatment-Emergent AE: Dyspepsia [2, 9]: (13%)
- Subjects (%) with at least one Treatment-Emergent AE: Headache [2, 9]: (50%)
- Subjects (%) with at least one Treatment-Emergent AE: Nausea [2, 9]: (13%)
- Subjects (%) with at least one Treatment-Emergent AE: Procedural pain [2, 9]: (25%)
- Subjects (%) with at least one Treatment-Emergent AE: Upper respiratory tract infection [2, 9]: (25%)
- Subjects (%) with at least one Treatment-Emergent AE: Vomiting [2, 9]: (25%)
- Treatment-emergent AEs, % of subjects ([2]; MAD, CT1812 (of 31 subjects)): 81%
- Treatment-emergent AEs, number of subjects ([2]; MAD, CT1812 (of 31 subjects)): 25
- Number of Subjects with at least one Treatment-Emergent AE: All TEAEs ([2]; MAD, Total Active (n = 31)): 25
- Number of Subjects with at least one Treatment-Emergent AE: Back pain ([2]; MAD, Total Active (n = 31)): 2
- Number of Subjects with at least one Treatment-Emergent AE: Catheter site phlebitis ([2]; MAD, Total Active (n = 31)): 2
- Number of Subjects with at least one Treatment-Emergent AE: Dizziness ([2]; MAD, Total Active (n = 31)): 3
- Number of Subjects with at least one Treatment-Emergent AE: Dyspepsia ([2]; MAD, Total Active (n = 31)): 3
- Number of Subjects with at least one Treatment-Emergent AE: Headache ([2]; MAD, Total Active (n = 31)): 10
- Number of Subjects with at least one Treatment-Emergent AE: Nausea ([2]; MAD, Total Active (n = 31)): 2
- Number of Subjects with at least one Treatment-Emergent AE: Procedural pain ([2]; MAD, Total Active (n = 31)): 6
- Number of Subjects with at least one Treatment-Emergent AE: Upper respiratory tract infection ([2]; MAD, Total Active (n = 31)): 8
- Number of Subjects with at least one Treatment-Emergent AE: Vomiting ([2]; MAD, Total Active (n = 31)): 2
- Subjects (%) with at least one Treatment-Emergent AE: All TEAEs ([2]; MAD, Total Active (n = 31)): (%81)
- Subjects (%) with at least one Treatment-Emergent AE: Back pain ([2]; MAD, Total Active (n = 31)): (6%)
- Subjects (%) with at least one Treatment-Emergent AE: Catheter site phlebitis ([2]; MAD, Total Active (n = 31)): (6%)
- Subjects (%) with at least one Treatment-Emergent AE: Dizziness ([2]; MAD, Total Active (n = 31)): (10%)
- Subjects (%) with at least one Treatment-Emergent AE: Dyspepsia ([2]; MAD, Total Active (n = 31)): (10%)
- Subjects (%) with at least one Treatment-Emergent AE: Headache ([2]; MAD, Total Active (n = 31)): (32%)
- Subjects (%) with at least one Treatment-Emergent AE: Nausea ([2]; MAD, Total Active (n = 31)): (6%)
- Subjects (%) with at least one Treatment-Emergent AE: Procedural pain ([2]; MAD, Total Active (n = 31)): (19%)
- Subjects (%) with at least one Treatment-Emergent AE: Upper respiratory tract infection ([2]; MAD, Total Active (n = 31)): (26%)
- Subjects (%) with at least one Treatment-Emergent AE: Vomiting ([2]; MAD, Total Active (n = 31)): (6%)
- rash ([2]; MAD, improved after discontinuing CT1812): One subject developed a rash
- increase in liver function tests ([2]; four subjects in MAD study (including one on placebo)): below 3 × the upper limit of normal
- plasma CT1812 concentration vs dose ([3]; day 28): increased approximately dose proportionally
- CSF CT1812 concentration vs dose ([3]; days 22-30): dose dependent increase
- full length neurogranin protein expression in neurons [4]: restores neurogranin expression
- cognitive performance / memory ([5]; aged transgenic mouse models of AD): restoring normal cognitive performance; also recorded: restores cognitive function; also recorded: restores memory to normal
- inflammatory protein expression in CSF ([5]; chronic treatment of aged transgenic mice, efficacious doses, LC/MSMS): significantly reduces
